Source: the NIST ThermoML archive (doi:10.1016/j.jct.2018.04.007)
± gives the expanded uncertainty stated by the source.

Assays:
[1] = wn = mass fraction of the nth substance listed; conditions: 96.2 kPa, Liquid, w1 = 0.3; for viscosity: Cone and plate viscometry; for mass density: Pycnometric method; for thermal conductivity: transient hot wire
[2] = molar heat capacity at constant pressure; wn = mass fraction of the nth substance listed; conditions: 96.2 kPa, Liquid, DSC, w1 = 0.3

SMILES: CC(O)CO (stereo unspecified) [1,2-propanediol] + O
- viscosity ([1]; 293.15 K): 3.02 ± 0.09 mPa·s
- mass density ([1]; 293.15 K): 1023.1 ± 1.1 kg/m3
- thermal conductivity ([1]; 293.15 K): 0.443 ± 0.013 W/m/K
- viscosity ([1]; 303.15 K): 2.2 ± 0.07 mPa·s
- mass density ([1]; 303.15 K): 1019.2 ± 1.1 kg/m3
- thermal conductivity ([1]; 303.15 K): 0.454 ± 0.014 W/m/K
- viscosity ([1]; 313.15 K): 1.61 ± 0.05 mPa·s
- mass density ([1]; 313.15 K): 1014.5 ± 1.1 kg/m3
- thermal conductivity ([1]; 313.15 K): 0.463 ± 0.014 W/m/K
- viscosity ([1]; 323.15 K): 1.31 ± 0.04 mPa·s
- mass density ([1]; 323.15 K): 1009 ± 1.1 kg/m3
- thermal conductivity ([1]; 323.15 K): 0.472 ± 0.014 W/m/K
- molar heat capacity at constant pressure ([2]; 293.15 K): 89.44 ± 4.1 J/K/mol
- molar heat capacity at constant pressure ([2]; 303.15 K): 90 ± 4.2 J/K/mol
- molar heat capacity at constant pressure ([2]; 313.15 K): 90.52 ± 4.2 J/K/mol
- molar heat capacity at constant pressure ([2]; 323.15 K): 91.03 ± 4.2 J/K/mol
